Data as given in PubChem BioAssay (NCI).
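A five-concentration, 48-hour dose response in 96-well plates underlies each endpoint, interpolated linearly between surrounding concentrations. The concentration for 50% growth inhibition is given as GI50. At the TGI there is no net growth.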

Key:
Assay in all cases: NCI tumour cell line growth inhibition, 48 h
SF-539 CNS = tested on: SF-539 CNS
M14 melanoma = tested on: M14 melanoma
MOLT-4 leukemia = tested on: MOLT-4 leukemia
OVCAR-8 ovarian = tested on: OVCAR-8 ovarian
SK-MEL-2 melanoma = tested on: SK-MEL-2 melanoma
OVCAR-4 ovarian = tested on: OVCAR-4 ovarian
SK-MEL-5 melanoma = tested on: SK-MEL-5 melanoma
SNB-19 CNS = tested on: SNB-19 CNS
U251 CNS = tested on: U251 CNS
SNB-75 CNS = tested on: SNB-75 CNS
MDA-MB-231 breast = tested on: MDA-MB-231 breast
EKVX NSCLC = tested on: EKVX NSCLC
NCI/ADR-RES ovarian = tested on: NCI/ADR-RES ovarian
CCRF-CEM leukemia = tested on: CCRF-CEM leukemia
T-47D breast = tested on: T-47D breast
UO-31 renal = tested on: UO-31 renal
UACC-257 melanoma = tested on: UACC-257 melanoma
A549 NSCLC = tested on: A549 NSCLC
HOP-62 NSCLC = tested on: HOP-62 NSCLC
SN12C renal = tested on: SN12C renal
CAKI-1 renal = tested on: CAKI-1 renal
K-562 leukemia = tested on: K-562 leukemia
ACHN renal = tested on: ACHN renal
UACC-62 melanoma = tested on: UACC-62 melanoma
HCC-2998 colon = tested on: HCC-2998 colon
SF-268 CNS = tested on: SF-268 CNS
786-0 renal = tested on: 786-0 renal
DU-145 prostate = tested on: DU-145 prostate

Structure (SMILES): COc1cc(/C=C/C(=O)c2cc(F)c(Cl)cc2Cl)cc(OC)c1OC
- GI50 (SF-539 CNS): 28.1 µM
- TGI (SF-539 CNS): > 100 µM
- GI50 (M14 melanoma): 43.9 µM
- TGI (M14 melanoma): > 100 µM
- GI50 (MOLT-4 leukemia): 12.9 µM
- TGI (MOLT-4 leukemia): 52.9 µM
- GI50 (OVCAR-8 ovarian): 15.8 µM
- TGI (OVCAR-8 ovarian): 33.6 µM
- GI50 (SK-MEL-2 melanoma): 15.8 µM
- TGI (SK-MEL-2 melanoma): 58.7 µM
- GI50 (OVCAR-4 ovarian): 48.6 µM
- TGI (OVCAR-4 ovarian): > 100 µM
- GI50 (SK-MEL-5 melanoma): 49.6 µM
- TGI (SK-MEL-5 melanoma): > 100 µM
- GI50 (SNB-19 CNS): 39.6 µM
- TGI (SNB-19 CNS): > 100 µM
- GI50 (U251 CNS): 29.3 µM
- TGI (U251 CNS): > 100 µM
- GI50 (SNB-75 CNS): 56.3 µM
- TGI (SNB-75 CNS): > 100 µM
- GI50 (MDA-MB-231 breast): 15.7 µM
- TGI (MDA-MB-231 breast): > 100 µM
- GI50 (EKVX NSCLC): > 100 µM
- TGI (EKVX NSCLC): > 100 µM
- GI50 (NCI/ADR-RES ovarian): 23.9 µM
- TGI (NCI/ADR-RES ovarian): 83.8 µM
- GI50 (CCRF-CEM leukemia): 23.8 µM
- TGI (CCRF-CEM leukemia): 76.4 µM
- GI50 (T-47D breast): 41.2 µM
- TGI (T-47D breast): > 100 µM
- GI50 (UO-31 renal): 16.3 µM
- TGI (UO-31 renal): 32.8 µM
- GI50 (UACC-257 melanoma): 42 µM
- TGI (UACC-257 melanoma): > 100 µM
- GI50 (A549 NSCLC): 39.2 µM
- TGI (A549 NSCLC): > 100 µM
- GI50 (HOP-62 NSCLC): 82.2 µM
- TGI (HOP-62 NSCLC): > 100 µM
- GI50 (SN12C renal): 27.7 µM
- TGI (SN12C renal): > 100 µM
- GI50 (CAKI-1 renal): 27.6 µM
- TGI (CAKI-1 renal): > 100 µM
- GI50 (K-562 leukemia): 11.4 µM
- TGI (K-562 leukemia): 27.7 µM
- GI50 (ACHN renal): 60.6 µM
- TGI (ACHN renal): > 100 µM
- GI50 (UACC-62 melanoma): 24.8 µM
- TGI (UACC-62 melanoma): > 100 µM
- GI50 (HCC-2998 colon): 73 µM
- TGI (HCC-2998 colon): > 100 µM
- GI50 (SF-268 CNS): 68.9 µM
- TGI (SF-268 CNS): > 100 µM
- GI50 (786-0 renal): 22.9 µM
- TGI (786-0 renal): 97.2 µM
- GI50 (DU-145 prostate): 68.6 µM
- TGI (DU-145 prostate): > 100 µM
